Experimental data: paper PMC2874393, “Comparison of zwitterionic N-alkylaminomethanesulfonic acids to related compounds in the Good buffer series” (Beilstein Journal of Organic Chemistry, 2010)
Where two headings read alike, the source gives them in different places. Marks after values point to notes of the source that are not given here.

Legend:
[1] = cited from earlier work; for pKa (ethyl analog) / pKa (propyl analog): ref [1],[5],[7]; for pKa: in water, ref [4]
[2] = aqueous solubility (observation); assay type: physicochemical; conditions: at low pH / pH ≤ pKa
Description: All of the compounds except 2 show evidence of a systematic decrease in pKa as the number of carbons between the amine and sulfonic acid functional groups decreases.

[3] = pKa of ammonium ion proton dissociation by aqueous solution titrimetry; assay type: physicochemical
Protocol: We then performed titrations to determine the pKa values of proton dissociation from the ammonium ion (1a and equivalent). The pKa values determined for these compounds, along with those of the analogous aminoethanesulfonate and aminopropanesulfonate buffer pKa values for comparison is presented in Table 1.
Acid dissociation constants for the ammonium ions were determined by aqueous solution titrimetry (min. 5 repetitions from low to high, then high to low pH) using standardized NaOH and HCl solutions.

E. coli strain HB101 = assay: culture growth with buffer compounds, optical density at 600 nm; assay type: cell-based; conditions: for Final OD600: E. coli HB101, pH 7.2, 37 °C, 18 h, 3 trials; for culture growth support: all concentrations tested (10, 20, 50 mM); for toxicity or culture growth inhibition: higher concentrations of buffer
Protocol: In order to assess the potential utility of these compounds as biological buffers, we conducted an initial experiment with different concentrations of the new compounds with E. coli strain HB101 at pH 7.2 and 37 °C for 18 h. Culture growth was estimated by optical density measurement at 600 nm, and the results are summarized in Table 2 (in which each value is the result of 3 separate trials, with an overall standard error for all final measurements of 0.025).

[4] = 2nd (ammonium) dissociation constant value
[5] = ammonium ion, aqueous titration

For `O=S(=O)(O)CCN1CCN(CCS(=O)(=O)O)CC1` [PIPES, reference compound], the “pKa (ethyl analog)” value [1, 4] is given as 6.8^b and the aqueous solubility [2] is given as “limited aqueous solubility”.
With `O=S(=O)(O)CN1CCOCC1` [compound 1, N-Morpholinomethanesulfonic acid] the pKa ([3]; 0.3 M solution at 20 °C) was 3.8, the pKa [3, 5] was 3.9 and the “Final OD600” value (E. coli strain HB101; 10 mM buffer) was 1.16. The “Final OD600” value (E. coli strain HB101; 20 mM buffer) was 1.22, the “Final OD600” value (E. coli strain HB101; 50 mM buffer) was 1.18 and the culture growth support (E. coli strain HB101) was “supported culture growth at all concentrations tested”.
With `O=S(=O)(O)CN1CCN(CS(=O)(=O)O)CC1` [compound 3, Piperazine-N,N′-bis(methanesulfonic acid)] the pKa ([3]; 0.3 M solution at 20 °C) was 4.8, the pKa ([3]; 2nd (ammonium) dissociation constant value, aqueous titration) was 4.9 and the “Final OD600” value (E. coli strain HB101; 10 mM buffer) was 1.23. The “Final OD600” value (E. coli strain HB101; 20 mM buffer) was 1.21, the “Final OD600” value (E. coli strain HB101; 50 mM buffer) was 1.08 and the culture growth support (E. coli strain HB101) was “supported culture growth at all concentrations tested”. The “toxicity or culture growth inhibition” value (E. coli strain HB101) was “possible toxicity or other culture growth inhibition” and the aqueous solubility [2] was “does not demonstrate the limited aqueous solubility”.
For `NCS(=O)(=O)O` [aminomethanesulfonic acid], the pKa [1] is given as 5.75.
With `O=S(=O)(O)CN1CCN(CCO)CC1` [compound 2, N-(2-hydroxyethyl)piperazine-N′-methanesulfonic acid] the pKa ([3]; 0.25M solution at 20 °C) was 7.4, the pKa [3, 5] was 7.9 and the “Final OD600” value (E. coli strain HB101; 10 mM buffer) was 1.16. For the same compound, the “Final OD600” value (E. coli strain HB101; 20 mM buffer) was 1.08, the “Final OD600” value (E. coli strain HB101; 50 mM buffer) was 0.66 and the culture growth support (E. coli strain HB101) was “supported culture growth at all concentrations tested”. For the same compound, the “toxicity or culture growth inhibition” value (E. coli strain HB101) was “possible toxicity or other culture growth inhibition”.
In the case of `O=S(=O)(O)CCNC1CCCCC1` [CHES, 2-(cyclohexylamino)ethanesulfonic acid], the “pKa (ethyl analog)” value [1] is listed as 9.3.
In the case of `O=S(=O)(O)CCCN1CCN(CCCS(=O)(=O)O)CC1` [PIPPS, piperazine-N,N′-bis(3-propanesulfonic acid], the “pKa (propyl analog)” value [1, 4] is given as 8.0^b.
For `NS(=O)(=O)O` [sulfamic acid], the pKa [1] is given as 1.01.
In the case of `O=S(=O)(O)CCN1CCN(CCO)CC1` [HEPES], the “pKa (ethyl analog)” value [1] is given as 7.5.
In the case of `O=S(=O)(O)CCCN1CCN(CCO)CC1` [EPPS, 4-(2-hydroxyethyl)-1-piperazinepropanesulfonic acid], the “pKa (propyl analog)” value [1] is given as 8.0.
With `O=S(=O)(O)CNC1CCCCC1` [compound 4, Cyclohexylaminomethanesulfonic acid] the pKa ([3]; 0.3 M solution at 20 °C) was 7.8, the pKa [3, 5] was ~7 and the aqueous solubility [2] was “limited solubility in aqueous solution”.
